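Where inhibition never reached the appropriate level, the endpoint shown equals the highest concentration tested. Otherwise, values were interpolated linearly from a five-concentration, 48-hour dose response in 96-well plates. GI50: concentration for 50% inhibition of growth. TGI: concentration producing complete growth inhibition.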
Key:
Experiment in all cases: DTP human tumour cell line panel, 48 h
[1] = test system: UACC-62 melanoma
[2] = test system: SK-MEL-28 melanoma
[3] = test system: OVCAR-5 ovarian
[4] = test system: HOP-92 NSCLC
[5] = test system: MDA-MB-231 breast
[6] = test system: NCI/ADR-RES ovarian
[7] = test system: SF-539 CNS
[8] = test system: 786-0 renal
[9] = test system: SN12C renal
[10] = test system: COLO 205 colon
[11] = test system: KM12 colon
[12] = test system: EKVX NSCLC
[13] = test system: K-562 leukemia
[14] = test system: T-47D breast
[15] = test system: DU-145 prostate
[16] = test system: MOLT-4 leukemia
[17] = test system: HOP-62 NSCLC
[18] = test system: HS 578T breast
[19] = test system: SNB-19 CNS
[20] = test system: SNB-75 CNS
[21] = test system: OVCAR-4 ovarian
[22] = test system: BT-549 breast
[23] = test system: A498 renal
[24] = test system: NCI-H226 lung
[25] = test system: IGROV1 ovarian
[26] = test system: SF-268 CNS
[27] = test system: HL-60(TB) leukemia
[28] = test system: M14 melanoma
[29] = test system: OVCAR-8 ovarian
[30] = test system: A549 NSCLC
[31] = test system: NCI-H460 lung
[32] = test system: HCT-116 colon
[33] = test system: NCI-H522 lung
[34] = test system: CCRF-CEM leukemia
[35] = test system: SK-OV-3 ovarian
[36] = test system: TK-10 renal
[37] = test system: LOX IMVI melanoma
[38] = test system: RXF 393 renal
[39] = test system: RPMI-8226 leukemia
[40] = test system: U251 CNS
[41] = test system: SF-295 CNS
[42] = test system: UACC-257 melanoma
[43] = test system: CAKI-1 renal
[44] = test system: SK-MEL-5 melanoma
[45] = test system: NCI-H23 lung
[46] = test system: MDA-MB-435
[47] = test system: HT29 colon
[48] = test system: PC-3 prostate
[49] = test system: ACHN renal
[50] = test system: MALME-3M melanoma
[51] = test system: UO-31 renal
[52] = test system: SR leukemia

Work on `O=C1c2c(c3c4cc(Br)ccc4[nH]c3c3ccc4ccccc4c23)C(=O)N1CCN1CCNCC1` yielded a GI50 [1] of 12.8 µM, a TGI [1] of 31.3 µM and a GI50 [2] of 15.7 µM. It also gave a TGI [2] of 35.1 µM, a GI50 [3] of 2.88 µM and a TGI [3] of 9.14 µM. The GI50 [4] was 14.4 µM, the TGI [4] was 28.7 µM and the GI50 [5] was 2.34 µM. It also gave a TGI [5] of 6.32 µM, a GI50 [6] of 3.66 µM and a TGI [6] of 26.7 µM. The GI50 [7] was 1.92 µM, the TGI [7] was 3.82 µM and the GI50 [8] was 2.94 µM. For the same compound, the TGI [8] was 9.44 µM, the GI50 [9] was 13.5 µM and the TGI [9] was 36.6 µM. The GI50 [10] was 6.51 µM, the TGI [10] was 27.7 µM and the GI50 [11] was 3.21 µM. The TGI [11] was 11.6 µM, the GI50 [12] was 1.98 µM and the TGI [12] was 4.96 µM. The GI50 [13] was 1.28 µM, the TGI [13] was 3.05 µM and the GI50 [14] was 4.3 µM. It also gave a TGI [14] of 26 µM, a GI50 [15] of 2.09 µM and a TGI [15] of 4.53 µM. The GI50 [16] was 1.04 µM, the TGI [16] was 4.14 µM and the GI50 [17] was 6.28 µM. For the same compound, the TGI [17] was 26.9 µM, the GI50 [18] was 17.9 µM and the TGI [18] was 52.4 µM. The GI50 [19] was 1.8 µM, the TGI [19] was 3.79 µM and the GI50 [20] was 18.3 µM. The TGI [20] was 35.5 µM, the GI50 [21] was 12.3 µM and the TGI [21] was 33.9 µM. It also gave a GI50 [22] of 13.1 µM, a TGI [22] of 30.7 µM and a GI50 [23] of 16.1 µM. The TGI [23] was 29.8 µM, the GI50 [24] was 10.8 µM and the TGI [24] was 39.5 µM. The GI50 [25] was 11.8 µM, the TGI [25] was 33.7 µM and the GI50 [26] was 12.3 µM. For the same compound, the TGI [26] was 36.3 µM, the GI50 [27] was 6.78 µM and the TGI [27] was 26 µM. It also gave a GI50 [28] of 10.7 µM, a TGI [28] of 25.7 µM and a GI50 [29] of 1.96 µM. For the same compound, the TGI [29] was 5 µM, the GI50 [30] was 2.6 µM and the TGI [30] was 9.13 µM. For the same compound, the GI50 [31] was 2.38 µM, the TGI [31] was 10.2 µM and the GI50 [32] was 1.73 µM. For the same compound, the TGI [32] was 3.13 µM, the GI50 [33] was 1.67 µM and the TGI [33] was 7.46 µM. For the same compound, the GI50 [34] was 0.947 µM, the TGI [34] was 6.8 µM and the GI50 [35] was 16.2 µM. For the same compound, the TGI [35] was 30.8 µM, the GI50 [36] was 19.8 µM and the TGI [36] was 38.1 µM. For the same compound, the GI50 [37] was 2.06 µM, the TGI [37] was 5.3 µM and the GI50 [38] was 6.97 µM. The TGI [38] was 23.4 µM, the GI50 [39] was 2.19 µM and the TGI [39] was 5.26 µM. The GI50 [40] was 1.49 µM, the TGI [40] was 2.86 µM and the GI50 [41] was 13.9 µM. It also gave a TGI [41] of 32.9 µM, a GI50 [42] of 12.9 µM and a TGI [42] of 28.4 µM. It also gave a GI50 [43] of 10.5 µM, a TGI [43] of 24.6 µM and a GI50 [44] of 18.1 µM. The TGI [44] was 38 µM, the GI50 [45] was 2.96 µM and the TGI [45] was 12.7 µM. The GI50 [46] was 3.12 µM, the TGI [46] was 10.8 µM and the GI50 [47] was 1.64 µM. For the same compound, the TGI [47] was 3.11 µM, the GI50 [48] was 2.91 µM and the TGI [48] was 11 µM. The GI50 [49] was 11.1 µM, the TGI [49] was 27.4 µM and the GI50 [50] was 14.3 µM. For the same compound, the TGI [50] was 36.3 µM, the GI50 [51] was 11.2 µM and the TGI [51] was 27.2 µM. The GI50 [52] was 0.507 µM and the TGI [52] was 2.79 µM.
